pIC50: −log10 of the molar value.
Biological target: VEGFR2 (Homo sapiens (Human), UniProt P35968)
Assay: VEGFR2 Kinase Assay (biochemical KDR kinase assay, poly-Glu-Tyr ELISA)
Conditions: for pIC50: purified cytoplasmic domain KDR protein, 2.7 μM ATP, 15 minute incubation at 30° C., read-out: VEGFR2 Enzyme IC50; for VEGFR2 potency as shown in this assay (in words): statement in words on the Table 2 data
Description: Biochemical KDR kinase assays were performed in 96 well microtiter plates that were coated overnight with 75 μg/well of poly-Glu-Tyr (4:1) in 10 mM Phosphate Buffered Saline (PBS), pH 7.4. The coated plates were washed with 2 mLs per well PBS+0.05% Tween-20 (PBS-T), blocked by incubation with PBS containing 1% BSA, then washed with 2 mLs per well PBS-T prior to starting the reaction. Reactions were carried out in 100 μL reaction volumes containing 2.7 μM ATP in kinase buffer (50 mM Hepes buffer pH 7.4, 20 mM MgCl2, 0.1 mM MnCl2 and 0.2 mM Na3VO4). […] Reactions were initiated by the addition 20 ul per well of kinase buffer containing 200-300 ng purified cytoplasmic domain KDR protein (BPS Bioscience, San Diego, Calif.). Following a 15 minute incubation at 30° C., the reactions were washed 2 mLs per well PBS-T. 100 μl of a monoclonal anti-phosphotyrosine antibody-peroxidase conjugate diluted 1:10,000 in PBS-T was added to the wells for 30 minutes. Following a 2 mLs per well wash with PBS-Tween-20, 100 μl of O-Phenylenediamine Dihydrochloride in phosphate-citrate buffer, containing urea hydrogen peroxide, was added to the wells for 7-10 minutes as a colorimetric substrate for the peroxidase. The reaction was terminated by the addition of 100 μl of 2.5N H2SO4 to each well and read using a microplate ELISA reader set at 492 nm. IC50 values for compound inhibition were calculated directly from graphs of optical density (arbitrary units) versus compound concentration following subtraction of blank values.

VEGFR2, sequence (P35968 786-1356): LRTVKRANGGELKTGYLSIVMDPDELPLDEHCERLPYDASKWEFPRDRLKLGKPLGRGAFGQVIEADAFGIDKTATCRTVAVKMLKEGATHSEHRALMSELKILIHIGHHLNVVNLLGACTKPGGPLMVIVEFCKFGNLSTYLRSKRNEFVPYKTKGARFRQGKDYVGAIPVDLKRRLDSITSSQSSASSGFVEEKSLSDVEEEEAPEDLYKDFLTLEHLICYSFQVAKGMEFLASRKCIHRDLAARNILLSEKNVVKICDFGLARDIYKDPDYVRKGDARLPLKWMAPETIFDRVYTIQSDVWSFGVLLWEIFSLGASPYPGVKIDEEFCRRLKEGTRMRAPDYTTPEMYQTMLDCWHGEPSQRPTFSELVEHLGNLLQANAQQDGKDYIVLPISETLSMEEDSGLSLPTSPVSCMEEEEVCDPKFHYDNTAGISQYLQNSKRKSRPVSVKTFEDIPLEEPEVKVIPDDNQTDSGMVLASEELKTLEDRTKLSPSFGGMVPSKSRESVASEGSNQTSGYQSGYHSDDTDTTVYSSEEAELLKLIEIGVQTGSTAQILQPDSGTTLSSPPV

Structure (SMILES) | pIC50 | VEGFR2 potency as shown in this assay (in words)
O=C(Nc1ccc(C2CN=C3c4ccccc4NC(=O)N3C2)cc1)Nc1cccc(Br)c1 (stereo not drawn) [Example 9, 1-(3-Bromophenyl)-3-[4-(6-oxo-3,4,6,7-tetrahydro-2H-pyrimido[1,2-c]quinazolin-3-yl)phenyl]urea] | 6.60 | excellent VEGFR2 potency
Cc1cc(NC(=O)Nc2cc(C(F)(F)F)ccc2F)ccc1C1CN=C2c3ccccc3NC(=O)N2C1 (stereo not drawn) [Example 25, 1-[2-fluoro-5-(trifluoromethyl)phenyl]-3-[3-methyl-4-(6-oxo-3,4,6,7-tetrahydro-2H-pyrimido[1,2-c]quinazolin-3-yl)phenyl]urea] | 6.41 | 
CC(C)NC(=O)Nc1ccc(C2CN=C3c4ccccc4NC(=O)N3C2)cc1 (stereo not drawn) [Example 14, 1-Isopropyl-3-[4-(6-oxo-3,4,6,7-tetrahydro-2H-pyrimido[1,2-c]quinazolin-3-yl)phenyl]urea] |  | lack of potency
O=C(Nc1ccc(C2CN=C3c4ccccc4NC(=O)N3C2)cc1)Nc1ccc(Cl)c(C(F)(F)F)c1 (stereo not drawn) [Example 7, 1-[4-Chloro-3-(trifluoromethyl)phenyl]-3-[4-(6-oxo-3,4,6,7-tetrahydro-2H-pyrimido[1,2-c]quinazolin-3-yl)phenyl]urea] | 6.47 | excellent VEGFR2 potency
COC(=O)c1ccc2c(c1)NC(=O)N1CC(c3ccc(N(C)C(=O)Nc4cc(C(F)(F)F)ccc4F)cc3)CN=C21 (stereo not drawn) [Example 21, Methyl 3-{4-[({[2-fluoro-5-(trifluoromethyl)phenyl]amino}carbonyl)(methyl)amino]phenyl}-6-oxo-3,4,6,7-tetrahydro-2H-pyrimido[1,2-c]quinazoline-9-carboxylate] | < 5.00 | 
O=C(Nc1ccccc1)Nc1ccc(C2CN=C3c4ccccc4NC(=O)N3C2)cc1 (stereo not drawn) [Example 6, 1-[4-(6-Oxo-3,4,6,7-tetrahydro-2H-pyrimido[1,2-c]quinazolin-3-yl)phenyl]-3-phenylurea] | 5.32 | 
O=C(Nc1ccc(C2CN=C3c4ccccc4NC(=O)N3C2)cc1)Nc1cc(C(F)(F)F)ccc1F (stereo not drawn) [Example 5, 1-[2-Fluoro-5-(trifluoromethyl)phenyl]-3-[4-(6-oxo-3,4,6,7-tetrahydro-2H-pyrimido[1,2-c]quinazolin-3-yl)phenyl]urea] | 6.44 | excellent VEGFR2 potency
COc1ccc(NC(=O)Nc2ccc(C3CN=C4c5ccccc5NC(=O)N4C3)cc2)cc1 (stereo not drawn) [Example 12, 1-(4-Methoxyphenyl)-3-[4-(6-oxo-3,4,6,7-tetrahydro-2H-pyrimido[1,2-c]quinazolin-3-yl)phenyl]urea] | < 5.00 | 
COc1cccc(NC(=O)Nc2ccc(C3CN=C4c5ccccc5NC(=O)N4C3)cc2)c1 (stereo not drawn) [Example 13, 1-(3-Methoxyphenyl)-3-[4-(6-oxo-3,4,6,7-tetrahydro-2H-pyrimido[1,2-c]quinazolin-3-yl)phenyl]urea] | 5.83 | 
Cc1cccc(NC(=O)Nc2ccc(C3CN=C4c5ccccc5NC(=O)N4C3)cc2)c1 (stereo not drawn) [Example 10, 1-(3-Methylphenyl)-3-[4-(6-oxo-3,4,6,7-tetrahydro-2H-pyrimido[1,2-c]quinazolin-3-yl)phenyl]urea] | 6.48 | excellent VEGFR2 potency
Cc1cc(N)ccc1C1CN=C2c3ccccc3NC(=O)N2C1 (stereo not drawn) [Example 23, 3-(4-amino-2-methylphenyl)-2,3,4,7-tetrahydro-6H-pyrimido[1,2-c]quinazolin-6-one] | < 5.00 | 
Cc1ccoc1C(=O)Nc1ccc(C2CN=C3c4ccccc4NC(=O)N3C2)cc1 (stereo not drawn) [Example 16, 3-Methyl-N-[4-(6-oxo-3,4,6,7-tetrahydro-2H-pyrimido[1,2-c]quinazolin-3-yl)phenyl]-2-furamide] | < 5.00 | 
O=C(Nc1cccc(C2CN=C3c4ccccc4NC(=O)N3C2)c1)Nc1cc(C(F)(F)F)ccc1F (stereo not drawn) [Example 3, 1-[2-Fluoro-5-(trifluoromethyl)phenyl]-3-[3-(6-oxo-3,4,6,7-tetrahydro-2H-pyrimido[1,2-c]quinazolin-3-yl)phenyl]urea] | 6.12 | excellent VEGFR2 potency
COC(=O)c1ccc2c(c1)NC(=O)N1CC(c3ccc(N(C)C(=O)CN4CCN(C)CC4)cc3)CN=C21 (stereo not drawn) [Example 19, Methyl 3-(4-{methyl[(4-methylpiperazin-1-yl)acetyl]amino}phenyl)-6-oxo-3,4,6,7-tetrahydro-2H-pyrimido[1,2-c]quinazoline-9-carboxylate] | < 5.00 | lack of potency
O=C(Nc1ccc(C2CN=C3c4ccccc4NC(=O)N3C2)cc1)c1cccc(C(F)(F)F)c1 (stereo not drawn) [Example 17, N-[4-(6-oxo-3,4,6,7-tetrahydro-2H-pyrimido[1,2-c]quinazolin-3-yl)phenyl]-3-(trifluoromethyl)benzamide] | < 5.00 | 
Cc1cccc(NC(=O)Nc2ccc(C3CN=C4c5ccccc5NC(=O)N4C3)c(C)c2)c1 (stereo not drawn) [Example 24, 1-[3-methyl-4-(6-oxo-3,4,6,7-tetrahydro-2H-pyrimido[1,2-c]quinazolin-3-yl)phenyl]-3-(3-methylphenyl)urea] | 5.82 | 
CNc1ccc(C2CN=C3c4ccc(C(=O)OC)cc4NC(=O)N3C2)cc1 (stereo not drawn) [Example 18, Methyl 3-[4-(methylamino)phenyl]-6-oxo-3,4,6,7-tetrahydro-2H-pyrimido[1,2-c]quinazoline-9-carboxylate] | < 5.00 | 
CSc1cccc(NC(=O)Nc2ccc(C3CN=C4c5ccccc5NC(=O)N4C3)cc2)c1 (stereo not drawn) [Example 8, 1-[3-(Methylthio)phenyl]-3-[4-(6-oxo-3,4,6,7-tetrahydro-2H-pyrimido[1,2-c]quinazolin-3-yl)phenyl]urea] | 5.74 | 
Cc1ccoc1C(=O)Nc1cccc(C2CN=C3c4ccccc4NC(=O)N3C2)c1 (stereo not drawn) [Example 15, 3-Methyl-N-[3-(6-oxo-3,4,6,7-tetrahydro-2H-pyrimido[1,2-c]quinazolin-3-yl)phenyl]-2-furamide] | 5.20 | excellent VEGFR2 potency
Nc1ccc(C2CN=C3c4ccccc4NC(=O)N3C2)cc1 (stereo not drawn) [Example 4, 3-(4-Aminophenyl)-2,3,4,7-tetrahydro-6H-pyrimido[1,2-c]quinazolin-6-one] | < 5.00 | 
Cc1cc(C2CN=C3c4ccccc4NC(=O)N3C2)ccc1N (stereo not drawn) [Example 22, 3-(4-amino-3-methylphenyl)-2,3,4,7-tetrahydro-6H-pyrimido[1,2-c]quinazolin-6-one] | < 5.00 | 
Nc1cccc(C2CN=C3c4ccccc4NC(=O)N3C2)c1 (stereo not drawn) [Example 2, 3-(3-Aminophenyl)-2,3,4,7-tetrahydro-6H-pyrimido[1,2-c]quinazolin-6-one] | < 5.00 | 
O=C1Nc2ccccc2C2=NCC(c3ccc(Cl)cc3)CN12 (stereo not drawn) [Example 1, 3-(4-Chlorophenyl)-2,3,4,7-tetrahydro-6H-pyrimido[1,2-c]quinazolin-6-one] | < 5.00 | 
CN1CCN(CC(=O)Nc2ccc(C3CN=C4c5ccccc5NC(=O)N4C3)cc2)CC1 (stereo not drawn) [Example 20, 2-(4-Methylpiperazin-1-yl)-N-[4-(6-oxo-3,4,6,7-tetrahydro-2H-pyrimido[1,2-c]quinazolin-3-yl)phenyl]acetamide] | < 5.00 | lack of potency
Cc1ccc(NC(=O)Nc2ccc(C3CN=C4c5ccccc5NC(=O)N4C3)cc2)cc1 (stereo not drawn) [Example 11, 1-(4-Methylphenyl)-3-[4-(6-oxo-3,4,6,7-tetrahydro-2H-pyrimido[1,2-c]quinazolin-3-yl)phenyl]urea] | 5.39 | 
